From article PMC4775085 (ACS chemical neuroscience, 2015)
Several values for one entry are separate records, joined by “and”; a condition that tells them apart may be missing. Equal values may be shown once.

Tests used:
HDAC8 = target: T1, HDAC8 (Homo sapiens, UniProt Q9BY41); assay: HDAC8 enzymatic inhibition assay
T1 sequence (Q9BY41 1-377): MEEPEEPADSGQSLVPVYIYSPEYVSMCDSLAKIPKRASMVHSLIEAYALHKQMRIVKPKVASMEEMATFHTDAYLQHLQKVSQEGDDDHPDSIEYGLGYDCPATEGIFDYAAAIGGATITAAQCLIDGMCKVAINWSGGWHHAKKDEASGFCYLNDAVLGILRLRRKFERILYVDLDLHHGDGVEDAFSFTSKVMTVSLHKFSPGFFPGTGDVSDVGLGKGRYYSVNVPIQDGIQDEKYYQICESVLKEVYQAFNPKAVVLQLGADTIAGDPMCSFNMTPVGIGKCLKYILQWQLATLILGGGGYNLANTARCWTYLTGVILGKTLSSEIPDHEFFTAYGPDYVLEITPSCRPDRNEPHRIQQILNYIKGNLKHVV

HDAC3 = HDAC3 (Homo sapiens, UniProt O15379); assay: HDAC3 enzymatic inhibition assay
HDAC5 = HDAC5 (Homo sapiens, UniProt Q9UQL6); assay: HDAC5 enzymatic inhibition assay
HDAC6 = target: T2, HDAC6 (Homo sapiens, UniProt Q9UBN7); assay: HDAC6 enzymatic inhibition assay; type: biochemical
T2 sequence (Q9UBN7 1-1215): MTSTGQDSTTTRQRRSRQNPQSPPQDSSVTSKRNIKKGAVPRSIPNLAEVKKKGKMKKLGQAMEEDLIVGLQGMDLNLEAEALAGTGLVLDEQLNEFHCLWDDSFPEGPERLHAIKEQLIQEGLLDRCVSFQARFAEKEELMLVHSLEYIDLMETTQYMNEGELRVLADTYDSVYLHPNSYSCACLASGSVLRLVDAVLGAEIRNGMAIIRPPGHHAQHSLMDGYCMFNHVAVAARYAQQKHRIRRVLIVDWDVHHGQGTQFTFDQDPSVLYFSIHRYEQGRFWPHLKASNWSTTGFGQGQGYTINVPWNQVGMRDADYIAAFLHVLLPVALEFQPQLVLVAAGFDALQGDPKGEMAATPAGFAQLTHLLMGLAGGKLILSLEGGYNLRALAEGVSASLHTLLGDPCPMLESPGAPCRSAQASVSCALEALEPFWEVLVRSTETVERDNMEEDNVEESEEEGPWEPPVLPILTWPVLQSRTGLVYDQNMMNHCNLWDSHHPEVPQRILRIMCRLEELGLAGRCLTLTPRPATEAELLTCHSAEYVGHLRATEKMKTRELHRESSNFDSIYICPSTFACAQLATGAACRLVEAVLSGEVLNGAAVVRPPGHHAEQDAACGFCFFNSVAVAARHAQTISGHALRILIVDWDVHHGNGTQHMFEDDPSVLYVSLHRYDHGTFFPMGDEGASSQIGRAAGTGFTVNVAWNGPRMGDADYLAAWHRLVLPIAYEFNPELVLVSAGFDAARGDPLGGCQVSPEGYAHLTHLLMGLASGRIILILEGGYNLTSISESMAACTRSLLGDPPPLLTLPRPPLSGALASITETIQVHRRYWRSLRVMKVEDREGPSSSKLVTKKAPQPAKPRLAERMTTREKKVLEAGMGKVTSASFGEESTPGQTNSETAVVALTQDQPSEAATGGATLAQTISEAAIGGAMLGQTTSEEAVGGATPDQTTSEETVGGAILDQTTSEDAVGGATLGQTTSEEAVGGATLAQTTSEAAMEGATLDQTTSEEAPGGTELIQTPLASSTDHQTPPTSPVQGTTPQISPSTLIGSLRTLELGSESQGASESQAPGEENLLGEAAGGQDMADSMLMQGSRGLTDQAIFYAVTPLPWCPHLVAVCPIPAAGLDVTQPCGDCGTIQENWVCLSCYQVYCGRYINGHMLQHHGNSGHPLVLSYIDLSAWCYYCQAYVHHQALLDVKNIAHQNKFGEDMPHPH

HDAC2 = HDAC2 (Homo sapiens, UniProt Q92769); assay: HDAC2 enzymatic inhibition assay
HDAC9 = HDAC9 (Homo sapiens, UniProt Q9UKV0); assay: HDAC9 enzymatic inhibition assay
mutant HSPB1 DRG neurons = assay: Mitochondrial axonal transport in mutant HSPB1 DRG neurons; type: cell-based, mouse; conditions: DRG neurons from transgenic mutant HSPB1 mice, 100 nM overnight
HDAC1 = HDAC1 (Homo sapiens, UniProt Q13547); assay: HDAC1 enzymatic inhibition assay; type: biochemical; conditions: HDAC1 IC50, singlet 10-dose IC50 mode, 3-fold serial dilution starting at 100 μM
HDAC10 = target: T3, HDAC10 (Homo sapiens, UniProt Q969S8); assay: HDAC10 enzymatic inhibition assay
T3 sequence (Q969S8 1-669): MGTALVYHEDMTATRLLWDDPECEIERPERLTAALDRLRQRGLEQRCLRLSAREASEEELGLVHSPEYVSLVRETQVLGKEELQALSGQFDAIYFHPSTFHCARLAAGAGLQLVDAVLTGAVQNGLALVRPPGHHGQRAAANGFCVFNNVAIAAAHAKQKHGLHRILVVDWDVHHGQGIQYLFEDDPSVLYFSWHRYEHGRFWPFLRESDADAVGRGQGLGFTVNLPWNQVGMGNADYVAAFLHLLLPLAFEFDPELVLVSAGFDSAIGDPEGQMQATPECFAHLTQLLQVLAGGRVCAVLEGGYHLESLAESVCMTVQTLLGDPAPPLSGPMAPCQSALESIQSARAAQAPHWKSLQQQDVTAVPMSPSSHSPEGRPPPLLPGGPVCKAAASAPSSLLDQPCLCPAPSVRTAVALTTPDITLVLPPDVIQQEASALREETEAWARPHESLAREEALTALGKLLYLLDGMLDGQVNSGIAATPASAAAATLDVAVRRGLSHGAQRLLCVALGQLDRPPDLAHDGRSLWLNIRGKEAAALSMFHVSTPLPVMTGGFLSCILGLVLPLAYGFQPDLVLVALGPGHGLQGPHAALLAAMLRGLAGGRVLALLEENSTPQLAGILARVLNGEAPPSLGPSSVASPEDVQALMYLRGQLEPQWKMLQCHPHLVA

Sequence of HDAC3 (O15379 whole entry): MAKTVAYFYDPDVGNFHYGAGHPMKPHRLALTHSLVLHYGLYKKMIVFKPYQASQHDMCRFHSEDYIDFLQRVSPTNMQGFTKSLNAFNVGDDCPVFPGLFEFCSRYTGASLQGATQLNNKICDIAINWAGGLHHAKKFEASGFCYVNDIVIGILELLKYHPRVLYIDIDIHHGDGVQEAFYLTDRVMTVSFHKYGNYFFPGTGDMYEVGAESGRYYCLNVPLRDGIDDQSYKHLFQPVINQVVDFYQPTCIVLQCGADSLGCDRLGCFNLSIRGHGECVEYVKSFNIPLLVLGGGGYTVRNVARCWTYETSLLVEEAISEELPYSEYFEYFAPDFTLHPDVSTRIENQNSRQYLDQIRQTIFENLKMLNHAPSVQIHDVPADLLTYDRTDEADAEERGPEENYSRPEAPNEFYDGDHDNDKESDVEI
Sequence of HDAC3 (Q9Y618 395-489 partner limits assumed): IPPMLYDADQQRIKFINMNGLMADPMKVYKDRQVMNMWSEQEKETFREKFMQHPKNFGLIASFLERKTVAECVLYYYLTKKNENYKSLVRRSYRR
Sequence of HDAC5 (Q9UQL6 whole entry): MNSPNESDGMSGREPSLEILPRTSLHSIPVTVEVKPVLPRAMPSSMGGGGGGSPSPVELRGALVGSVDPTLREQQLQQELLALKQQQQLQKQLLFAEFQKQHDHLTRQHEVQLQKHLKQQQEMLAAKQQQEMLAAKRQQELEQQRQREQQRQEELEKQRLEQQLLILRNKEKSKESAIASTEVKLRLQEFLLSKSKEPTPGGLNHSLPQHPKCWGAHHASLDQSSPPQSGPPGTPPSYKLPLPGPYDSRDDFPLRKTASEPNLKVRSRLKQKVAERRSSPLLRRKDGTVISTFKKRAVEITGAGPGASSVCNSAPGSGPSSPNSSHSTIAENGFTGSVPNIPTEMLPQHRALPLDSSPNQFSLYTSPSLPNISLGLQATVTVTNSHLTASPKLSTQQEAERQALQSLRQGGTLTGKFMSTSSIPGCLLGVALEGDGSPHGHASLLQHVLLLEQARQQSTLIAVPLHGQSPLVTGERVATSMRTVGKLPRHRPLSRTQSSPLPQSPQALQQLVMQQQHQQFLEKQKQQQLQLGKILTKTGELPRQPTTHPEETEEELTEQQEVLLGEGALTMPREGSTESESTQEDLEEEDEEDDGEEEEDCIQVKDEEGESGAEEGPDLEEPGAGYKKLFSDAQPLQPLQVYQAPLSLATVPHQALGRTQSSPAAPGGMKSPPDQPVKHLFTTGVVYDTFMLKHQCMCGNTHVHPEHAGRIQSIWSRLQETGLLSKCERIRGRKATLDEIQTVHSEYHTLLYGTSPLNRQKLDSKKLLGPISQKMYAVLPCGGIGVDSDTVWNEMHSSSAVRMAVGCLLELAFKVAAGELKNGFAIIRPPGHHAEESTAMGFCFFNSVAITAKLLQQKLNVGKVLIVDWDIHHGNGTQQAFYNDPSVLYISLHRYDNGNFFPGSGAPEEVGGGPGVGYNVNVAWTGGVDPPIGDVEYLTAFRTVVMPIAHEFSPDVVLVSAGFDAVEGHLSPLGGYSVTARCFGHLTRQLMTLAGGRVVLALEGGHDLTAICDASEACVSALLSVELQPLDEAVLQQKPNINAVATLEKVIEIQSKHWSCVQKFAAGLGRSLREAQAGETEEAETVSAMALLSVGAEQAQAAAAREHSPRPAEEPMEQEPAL
Sequence of HDAC9 (Q9UKV0 whole entry): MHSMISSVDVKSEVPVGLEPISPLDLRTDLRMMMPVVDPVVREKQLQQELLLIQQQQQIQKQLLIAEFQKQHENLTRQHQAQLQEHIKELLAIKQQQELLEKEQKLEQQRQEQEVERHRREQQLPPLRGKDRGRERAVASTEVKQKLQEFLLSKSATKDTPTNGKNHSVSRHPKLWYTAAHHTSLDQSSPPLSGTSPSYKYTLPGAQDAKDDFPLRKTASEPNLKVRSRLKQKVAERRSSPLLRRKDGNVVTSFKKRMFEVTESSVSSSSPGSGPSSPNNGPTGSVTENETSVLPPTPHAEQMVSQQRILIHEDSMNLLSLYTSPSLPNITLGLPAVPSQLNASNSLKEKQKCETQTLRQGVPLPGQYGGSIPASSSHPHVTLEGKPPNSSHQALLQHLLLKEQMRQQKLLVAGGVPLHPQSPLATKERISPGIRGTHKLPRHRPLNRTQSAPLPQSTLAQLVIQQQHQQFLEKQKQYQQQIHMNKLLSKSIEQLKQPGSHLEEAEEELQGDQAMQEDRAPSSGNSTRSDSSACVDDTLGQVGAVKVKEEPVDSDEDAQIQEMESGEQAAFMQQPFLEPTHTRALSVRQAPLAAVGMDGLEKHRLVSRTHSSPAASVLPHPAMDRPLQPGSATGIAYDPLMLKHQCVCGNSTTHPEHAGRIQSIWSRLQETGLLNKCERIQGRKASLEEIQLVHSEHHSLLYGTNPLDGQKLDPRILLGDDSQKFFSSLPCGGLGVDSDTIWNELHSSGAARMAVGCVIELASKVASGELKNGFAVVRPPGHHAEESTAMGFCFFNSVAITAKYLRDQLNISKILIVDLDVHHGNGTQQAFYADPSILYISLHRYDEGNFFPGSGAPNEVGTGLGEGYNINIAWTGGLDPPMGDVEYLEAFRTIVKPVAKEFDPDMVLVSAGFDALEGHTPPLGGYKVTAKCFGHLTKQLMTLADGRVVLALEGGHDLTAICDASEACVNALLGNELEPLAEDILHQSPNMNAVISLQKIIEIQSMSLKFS
Sequence of HDAC2 (Q92769 whole entry): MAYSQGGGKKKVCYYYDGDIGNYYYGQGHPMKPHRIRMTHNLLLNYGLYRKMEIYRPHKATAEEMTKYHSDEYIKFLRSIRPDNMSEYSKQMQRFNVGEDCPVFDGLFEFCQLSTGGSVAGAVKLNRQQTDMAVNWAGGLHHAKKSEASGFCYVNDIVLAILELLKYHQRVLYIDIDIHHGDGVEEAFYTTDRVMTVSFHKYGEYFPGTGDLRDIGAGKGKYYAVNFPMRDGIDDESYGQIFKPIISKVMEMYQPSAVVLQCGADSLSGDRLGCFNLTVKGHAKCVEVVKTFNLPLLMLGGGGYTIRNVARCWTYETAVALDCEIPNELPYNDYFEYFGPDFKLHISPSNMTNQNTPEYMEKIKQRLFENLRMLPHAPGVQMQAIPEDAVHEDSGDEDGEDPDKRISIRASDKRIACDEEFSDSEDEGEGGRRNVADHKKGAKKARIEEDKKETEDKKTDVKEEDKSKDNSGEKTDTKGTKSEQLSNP
Sequence of HDAC1 (Q13547 whole entry): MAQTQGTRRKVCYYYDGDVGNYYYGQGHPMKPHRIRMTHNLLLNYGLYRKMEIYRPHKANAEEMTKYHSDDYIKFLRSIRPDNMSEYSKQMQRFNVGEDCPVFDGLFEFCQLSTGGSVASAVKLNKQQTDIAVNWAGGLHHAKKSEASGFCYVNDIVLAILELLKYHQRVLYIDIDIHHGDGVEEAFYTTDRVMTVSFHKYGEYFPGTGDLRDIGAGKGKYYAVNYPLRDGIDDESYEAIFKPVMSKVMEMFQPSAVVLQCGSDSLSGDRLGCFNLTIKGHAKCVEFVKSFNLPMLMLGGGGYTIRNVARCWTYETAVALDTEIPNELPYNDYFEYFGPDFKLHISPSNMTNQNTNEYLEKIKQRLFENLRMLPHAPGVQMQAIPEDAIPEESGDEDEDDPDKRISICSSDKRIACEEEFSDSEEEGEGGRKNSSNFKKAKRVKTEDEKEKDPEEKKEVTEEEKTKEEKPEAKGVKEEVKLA

Compound: Cc1nc2ccc(F)cc2n1Cc1ccc(C(=O)NO)cc1 [30a, 4-[(6-Fluoro-2-methyl-1-benzimidazolyl)methyl]-N-hydroxybenzamide]
- IC50 (HDAC8): 368 nM
- IC50 (HDAC3): 10000 nM
- IC50 (HDAC5): 397 nM
- IC50 (HDAC6; HDAC6 IC50, singlet 10-dose IC50 mode, 3-fold serial dilution starting at 1 μM): 3.12 nM
- IC50 (HDAC6; IC50 (nM) HDAC6, mean of two experiments ± standard deviation, 10-point enzymatic assay starting from 30 μM, 3-fold serial dilution): 5 nM and 5.2 nM
- Selectivity HDAC1/HDAC6 (HDAC6; ratio of HDAC1 and HDAC6 IC50 of Table 1 (fold)): 562
- IC50 (HDAC2): 7430 nM
- IC50 (HDAC9): 463 nM
- mitochondrial axonal transport (number of moving mitochondria per 100 μm of neurite) (mutant HSPB1 DRG neurons): able to restore the movement of mitochondria
- IC50 (HDAC1): 4360 nM
- IC50 (HDAC10): 11800 nM
